Measured values: publication PMC12378631, “Novel macrocyclic peptidomimetics targeting the insulin-regulated aminopeptidase (IRAP): design, synthesis and evaluation” (RSC Medicinal Chemistry, 2025)
pIC50: −log10 of the molar value.

Columns and labels:
[1] = biological target: insulin-regulated aminopeptidase (IRAP) (Homo sapiens, UniProt Q9UIQ6); conditions: for IC50 higher than compound 37: compared with compound 37
[2] = test system: dendritic spine density in the hippocampus; design: method as in PMID 26769413; conditions: cited from earlier work
[3] = cited from earlier work
[4] = test system: rodent models of cognitive impairment; design: method as in PMID 10234025, PMID 11707427, PMID 3252173, PMID 14980384; conditions: cited from earlier work

Chain of insulin-regulated aminopeptidase (IRAP) (Q9UIQ6 whole entry): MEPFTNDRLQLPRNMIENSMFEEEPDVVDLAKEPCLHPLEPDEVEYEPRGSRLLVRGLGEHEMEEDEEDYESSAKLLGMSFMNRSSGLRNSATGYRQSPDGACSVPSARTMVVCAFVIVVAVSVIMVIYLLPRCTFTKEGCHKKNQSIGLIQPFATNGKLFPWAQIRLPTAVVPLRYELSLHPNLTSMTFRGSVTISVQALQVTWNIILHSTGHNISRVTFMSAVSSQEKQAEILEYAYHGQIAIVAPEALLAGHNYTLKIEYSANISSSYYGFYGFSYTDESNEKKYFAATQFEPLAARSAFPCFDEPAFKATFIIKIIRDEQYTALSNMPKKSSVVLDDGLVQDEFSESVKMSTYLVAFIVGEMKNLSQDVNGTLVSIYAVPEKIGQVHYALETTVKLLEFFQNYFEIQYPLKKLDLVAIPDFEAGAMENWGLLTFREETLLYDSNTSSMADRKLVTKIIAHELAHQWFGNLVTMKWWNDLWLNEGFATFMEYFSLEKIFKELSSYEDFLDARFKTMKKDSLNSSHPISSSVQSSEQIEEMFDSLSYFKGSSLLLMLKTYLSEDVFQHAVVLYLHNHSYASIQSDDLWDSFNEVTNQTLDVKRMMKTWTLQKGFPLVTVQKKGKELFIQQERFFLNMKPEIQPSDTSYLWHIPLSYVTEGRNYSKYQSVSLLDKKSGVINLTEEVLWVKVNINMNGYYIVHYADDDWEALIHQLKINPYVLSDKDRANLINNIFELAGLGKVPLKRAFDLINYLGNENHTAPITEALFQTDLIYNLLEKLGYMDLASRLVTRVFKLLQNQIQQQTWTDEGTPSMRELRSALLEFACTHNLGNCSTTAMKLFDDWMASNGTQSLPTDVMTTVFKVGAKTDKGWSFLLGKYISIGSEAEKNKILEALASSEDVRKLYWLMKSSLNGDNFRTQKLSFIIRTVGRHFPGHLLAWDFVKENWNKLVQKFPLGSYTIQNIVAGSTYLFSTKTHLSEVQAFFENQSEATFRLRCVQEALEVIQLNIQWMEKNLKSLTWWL

Compound | pIC50 [1] | IC50 higher than compound 37 [1] [fold] | dendritic spine density in the hippocampus [2] | susceptibility to proteolytic degradation in vivo [3] | performance in rodent models of cognitive impairment [4]
N[C@H]1CCSSC[C@@H](C(=O)NCc2cccc(C(=O)O)c2)NC(=O)C[C@H](Cc2ccc(O)cc2)NC1=O [Compound 38] | 6.04 | 14 | – | – | –
N[C@H]1CCSSC[C@@H](C(=O)NCc2ccc(C(=O)O)cc2)NC(=O)C[C@H](Cc2ccc(O)cc2)NC1=O [Compound 39] | 5.53 | 46 | – | – | –
N[C@H]1CCSSC[C@@H](C(=O)NCc2ccccc2CC(=O)O)NC(=O)C[C@H](Cc2ccc(O)cc2)NC1=O [HA08] | – | – | increase dendritic spine density in the hippocampus | susceptible to proteolytic degradation in vivo | –
Val–Tyr–Ile–His–Pro–Phe [Ang IV] | – | – | – | – | improves performance in rodent models of cognitive impairment
